Assay results from the supplement of paper PMC10627819.

Columns and labels:
Experiment in all cases: Bliss interaction score (quartile over a dose matrix) (fitness difference); higher = more antagonism (negative = synergy)
[1] = test system: B. subtilis 168
How it was run: (§1)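 Each OD595 reading at entry into stationary phase was scaled to the robust mean of the untreated wells on its plate, with a ceiling of 1. These ratios define fitness, and single-drug fitness was inferred from combinations. The Bliss score compares observed fitness with the product-based expectation and is reported as quartiles across all replicate types, technical, biological and donor/recipient.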

[2] = test system: S. aureus DSM 20231
How it was run: as §1

[3] = test system: S. aureus Newman
How it was run: as §1

[4] = test system: S. pneumoniae D39V
How it was run: as §1
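Further: first quartile when negative (synergy) and third quartile when positive (antagonism).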

## N#CC(C#N)=NNc1cccc(Cl)c1 [CCCP] + CO/N=C(\C(=O)N[C@@H]1C(=O)N2C(C(=O)O)=C(COC(N)=O)CS[C@H]12)c1ccco1 [Cefuroxime]
[1]
  Bliss interaction score: 0.0873
[2]
  Bliss interaction score: -0.256
[3]
  Bliss interaction score: -0.112
[4]
  Bliss interaction score: 0.0309

## COc1ccc(C[C@H](N)C(=O)N[C@H]2[C@@H](O)[C@H](n3cnc4c(N(C)C)ncnc43)O[C@@H]2CO)cc1 [Puromycin] + CC[C@H]1OC(=O)[C@H](C)C(=O)[C@H](C)[C@@H](O[C@@H]2O[C@H](C)C[C@H](N(C)C)[C@H]2O)[C@](C)(OC)C[C@@H](C)C(=O)[C@H](C)[C@H]2N(CCCCn3cnc(-c4cccnc4)c3)C(=O)O[C@]12C [Telithromycin]
[1]
  Bliss interaction score: 0.0276
[2]
  Bliss interaction score: 0.045
[3]
  Bliss interaction score: -0.0571
[4]
  Bliss interaction score: -0.0651

## CO/N=C(\C(=O)N[C@@H]1C(=O)N2C(C(=O)O)=C(COC(N)=O)CS[C@H]12)c1ccco1 [Cefuroxime] + CN(C)[C@@H]1C(O)=C(C(N)=O)C(=O)[C@@]2(O)C(O)=C3C(=O)c4c(O)ccc(Cl)c4[C@@](C)(O)[C@H]3C[C@@H]12 [Clortetracycline]
[1]
  Bliss interaction score: -0.0786
[2]
  Bliss interaction score: -0.269
[3]
  Bliss interaction score: -0.0677
[4]
  Bliss interaction score: 0.112

## C[C@H]1c2cccc(O)c2C(=O)C2=C(O)[C@]3(O)C(=O)C(C(N)=O)=C(O)[C@@H](N(C)C)[C@@H]3[C@@H](O)[C@@H]21 [Doxycycline] + CC[C@H]1OC(=O)[C@H](C)C(=O)[C@H](C)[C@@H](O[C@@H]2O[C@H](C)C[C@H](N(C)C)[C@H]2O)[C@](C)(OC)C[C@@H](C)C(=O)[C@H](C)[C@H]2N(CCCCn3cnc(-c4cccnc4)c3)C(=O)O[C@]12C [Telithromycin]
[1]
  Bliss interaction score: -0.326
[2]
  Bliss interaction score: -0.0892
[3]
  Bliss interaction score: -0.0224
[4]
  Bliss interaction score: -0.261

## C[C@H]1c2cccc(O)c2C(=O)C2=C(O)[C@]3(O)C(=O)C(C(N)=O)=C(O)[C@@H](N(C)C)[C@@H]3[C@@H](O)[C@@H]21 [Doxycycline] + CC[C@H]1OC(=O)[C@H](C)[C@@H](O[C@H]2C[C@@](C)(OC)[C@@H](O)[C@H](C)O2)[C@H](C)[C@@H](O[C@@H]2O[C@H](C)C[C@H](N(C)C)[C@H]2O)[C@](C)(O)C[C@@H](C)C(=O)[C@H](C)[C@@H](O)[C@]1(C)O [Erythromycin]
[1]
  Bliss interaction score: -0.162
[2]
  Bliss interaction score: -0.0389
[3]
  Bliss interaction score: -0.0251
[4]
  Bliss interaction score: -0.161

## CN(C)[C@@H]1C(O)=C(C(N)=O)C(=O)[C@@]2(O)C(O)=C3C(=O)c4c(O)ccc(Cl)c4[C@@](C)(O)[C@H]3C[C@@H]12 [Clortetracycline] + CCCCCCCCCC(=O)N[C@@H]1[C@H]([C@@H]([C@H](O[C@H]1OC2=C3C=C4C=C2OC5=C(C=C(C=C5)[C@H]([C@H]6C(=O)N[C@@H](C7=C(C(=CC(=C7)O)OC8[C@H]([C@H]([C@@H]([C@H](O8)CO)O)O)O)C9=C(C=CC(=C9)[C@H](C(=O)N6)NC(=O)[C@@H]4NC(=O)[C@@H]1C2=CC(=CC(=C2)OC2=C(C=CC(=C2)[C@H](C(=O)N[C@H](CC2=CC(=C(O3)C=C2)Cl)C(=O)N1)N)O)O)O)C(=O)O)O[C@H]1[C@@H]([C@H]([C@@H]([C@H](O1)CO)O)O)NC(=O)C)Cl)CO)O)O [Teicoplanin]
[1]; main component drawn
  Bliss interaction score: 0.0958
[2]; main component drawn
  Bliss interaction score: 0.111
[3]; main component drawn
  Bliss interaction score: 0.0527
[4]; main component drawn
  Bliss interaction score: -0.0412

## N#CC(C#N)=NNc1cccc(Cl)c1 [CCCP] + CN[C@H](CC(C)C)C(=O)N[C@H]1C(=O)N[C@@H](CC(N)=O)C(=O)N[C@H]2C(=O)N[C@H]3C(=O)N[C@H](C(=O)N[C@H](C(=O)O)c4cc(O)cc(O)c4-c4cc3ccc4O)[C@H](O[C@H]3C[C@](C)(N)[C@@H](O)[C@H](C)O3)c3ccc(c(Cl)c3)Oc3cc2cc(c3O[C@@H]2O[C@H](CO)[C@@H](O)[C@H](O)[C@H]2O[C@H]2C[C@](C)(NCc3ccc(-c4ccc(Cl)cc4)cc3)[C@@H](O)[C@H](C)O2)Oc2ccc(cc2Cl)[C@H]1O [Oritavancin]
[1]
  Bliss interaction score: 0.0275
[2]
  Bliss interaction score: -0.0305
[3]
  Bliss interaction score: 0.0576
[4]
  Bliss interaction score: 0.0676

## CC(=O)Oc1ccccc1C(=O)O [Acetylsalicylicacid] + C[n+]1ccc(-c2cc[n+](C)cc2)cc1 [Paraquat]
[1]
  Bliss interaction score: 0.067
[2]
  Bliss interaction score: 0.067
[3]
  Bliss interaction score: 0.0558
[4]
  Bliss interaction score: -0.0664

## CC(=O)Oc1ccccc1C(=O)O [Acetylsalicylicacid] + CO/N=C(\C(=O)N[C@@H]1C(=O)N2C(C(=O)O)=C(COC(C)=O)CS[C@H]12)c1csc(N)n1 [Cefotaxime]
[1]
  Bliss interaction score: 0.172
[2]
  Bliss interaction score: -0.1
[3]
  Bliss interaction score: -0.0434
[4]
  Bliss interaction score: 0.138

## CO/N=C(\C(=O)N[C@@H]1C(=O)N2C(C(=O)O)=C(COC(N)=O)CS[C@H]12)c1ccco1 [Cefuroxime] + CCC[C@@H]1C[C@@H](C(=O)N[C@@H]([C@H]2O[C@H](SC)[C@H](O)[C@@H](O)[C@H]2O)[C@H](C)Cl)N(C)C1 [Clindamycin]
[1]
  Bliss interaction score: -0.048
[2]
  Bliss interaction score: -0.156
[3]
  Bliss interaction score: -0.0892
[4]
  Bliss interaction score: 0.0539

## CN(C)[C@@H]1C(O)=C(C(N)=O)C(=O)[C@@]2(O)C(O)=C3C(=O)c4c(O)ccc(Cl)c4[C@@](C)(O)[C@H]3C[C@@H]12 [Clortetracycline] + Cn1nnc(-c2ccc(-c3ccc(N4C[C@H](CO)OC4=O)cc3F)cn2)n1 [Tedizolid]
[1]
  Bliss interaction score: -0.105
[2]
  Bliss interaction score: -0.0502
[3]
  Bliss interaction score: -0.0562
[4]
  Bliss interaction score: 0.0607

## CN(C)[C@@H]1C(O)=C(C(N)=O)C(=O)[C@@]2(O)C(O)=C3C(=O)c4c(O)ccc(Cl)c4[C@@](C)(O)[C@H]3C[C@@H]12 [Clortetracycline] + CO[C@@]12[C@H](COC(N)=O)C3=C(C(=O)C(C)=C(N)C3=O)N1C[C@@H]1N[C@@H]12 [MitomycinC]
[1]
  Bliss interaction score: 0.0447
[2]
  Bliss interaction score: -0.0551
[3]
  Bliss interaction score: 0.104
[4]
  Bliss interaction score: -0.0402

## CC(=O)Oc1ccccc1C(=O)O [Acetylsalicylicacid] + CC[C@H]1OC(=O)[C@H](C)[C@@H](O[C@H]2C[C@@](C)(OC)[C@@H](O)[C@H](C)O2)[C@H](C)[C@@H](O[C@@H]2O[C@H](C)C[C@H](N(C)C)[C@H]2O)[C@](C)(O)C[C@@H](C)CN(C)[C@H](C)[C@@H](O)[C@]1(C)O [Azithromycin]
[1]
  Bliss interaction score: 0.153
[2]
  Bliss interaction score: 0.179
[3]
  Bliss interaction score: 0.105
[4]
  Bliss interaction score: 0.0486

## CC(=O)Oc1ccccc1C(=O)O [Acetylsalicylicacid] + COc1c(N2C[C@@H]3CCCN[C@@H]3C2)c(F)cc2c(=O)c(C(=O)O)cn(C3CC3)c12 [Moxifloxacin]
[1]
  Bliss interaction score: -0.0213
[2]
  Bliss interaction score: 0.114
[3]
  Bliss interaction score: 0.114
[4]
  Bliss interaction score: 0.0628

## CC(=O)Oc1ccccc1C(=O)O [Acetylsalicylicacid] + CN(N=O)C(=O)N[C@@H](C=O)[C@@H](O)[C@H](O)[C@H](O)CO [Streptozotocin]
[1]
  Bliss interaction score: 0.0788
[2]
  Bliss interaction score: -0.0369
[3]
  Bliss interaction score: 0.0716
[4]
  Bliss interaction score: -0.0923
